ChEMBL document CHEMBL4765227, “Hit to lead optimization of a series of N-[4-(1,3-benzothiazol-2-yl)phenyl]acetamides as monoacylglycerol lipase inhibitors with potential anticancer activity” (Eur J Med Chem, 2016)

Legend:
Format in all cases: functional
HL-60(TB) = experiment: Growth inhibition of human HL-60(TB) cells incubated for 48 hrs by sulforhodamine B assay; details: for CC50: read-out: LC50 (the source's name)
K562 = experiment: Growth inhibition of human K562 cells incubated for 48 hrs by sulforhodamine B assay
MOLT-4 = experiment: Growth inhibition of human MOLT-4 cells incubated for 48 hrs by sulforhodamine B assay
A549 = experiment: Growth inhibition of human A549/ATCC cells incubated for 48 hrs by sulforhodamine B assay; details: for CC50: read-out: LC50 (the source's name)
HOP-92 = experiment: Growth inhibition of human HOP-92 cells incubated for 48 hrs by sulforhodamine B assay
NCI-H23 = experiment: Growth inhibition of human NCI-H23 cells incubated for 48 hrs by sulforhodamine B assay
NCI-H460 = experiment: Growth inhibition of human NCI-H460 cells incubated for 48 hrs by sulforhodamine B assay; details: for CC50: read-out: LC50 (the source's name)
NCI-H522 = experiment: Growth inhibition of human NCI-H522 cells incubated for 48 hrs by sulforhodamine B assay
COLO 205 = experiment: Growth inhibition of human COLO 205 cells incubated for 48 hrs by sulforhodamine B assay
HCT-116 = experiment: Growth inhibition of human HCT-116 cells incubated for 48 hrs by sulforhodamine B assay; details: for CC50: read-out: LC50 (the source's name)
HCT-15 = experiment: Growth inhibition of human HCT-15 cells incubated for 48 hrs by sulforhodamine B assay; details: for CC50: read-out: LC50 (the source's name)
KM12 = experiment: Growth inhibition of human KM12 cells incubated for 48 hrs by sulforhodamine B assay
SW-620 = experiment: Growth inhibition of human SW-620 cells incubated for 48 hrs by sulforhodamine B assay
SF-295 = experiment: Growth inhibition of human SF-295 cells incubated for 48 hrs by sulforhodamine B assay
SNB-19 = experiment: Growth inhibition of human SNB-19 cells incubated for 48 hrs by sulforhodamine B assay
SNB-75 = experiment: Growth inhibition of human SNB-75 cells incubated for 48 hrs by sulforhodamine B assay
U-251 = experiment: Growth inhibition of human U-251 cells incubated for 48 hrs by sulforhodamine B assay
LOX IMVI = experiment: Growth inhibition of human LOX IMVI cells incubated for 48 hrs by sulforhodamine B assay
MDA-MB-435 = experiment: Growth inhibition of human MDA-MB-435 cells incubated for 48 hrs by sulforhodamine B assay
SK-MEL-2 = experiment: Growth inhibition of human SK-MEL-2 cells incubated for 48 hrs by sulforhodamine B assay
SK-MEL-28 = experiment: Growth inhibition of human SK-MEL-28 cells incubated for 48 hrs by sulforhodamine B assay
SK-MEL-5 = experiment: Growth inhibition of human SK-MEL-5 cells incubated for 48 hrs by sulforhodamine B assay
UACC-257 = experiment: Growth inhibition of human UACC-257 cells incubated for 48 hrs by sulforhodamine B assay
IGROV-1 = experiment: Growth inhibition of human IGROV-1 cells incubated for 48 hrs by sulforhodamine B assay; details: for CC50: read-out: LC50 (the source's name)
OVCAR-3 = experiment: Growth inhibition of human OVCAR-3 cells incubated for 48 hrs by sulforhodamine B assay
OVCAR-8 = experiment: Growth inhibition of human OVCAR-8 cells incubated for 48 hrs by sulforhodamine B assay
NCI/ADR-RES = experiment: Growth inhibition of human NCI/ADR-RES cells incubated for 48 hrs by sulforhodamine B assay
786-0 = experiment: Growth inhibition of human 786-0 cells incubated for 48 hrs by sulforhodamine B assay
RXF 393 = experiment: Growth inhibition of human RXF 393 cells incubated for 48 hrs by sulforhodamine B assay
SN12C = experiment: Growth inhibition of human SN12C cells incubated for 48 hrs by sulforhodamine B assay
UO-31 = experiment: Growth inhibition of human UO-31 cells incubated for 48 hrs by sulforhodamine B assay
PC-3 = experiment: Growth inhibition of human PC-3 cells incubated for 48 hrs by sulforhodamine B assay; details: for CC50: read-out: LC50 (the source's name)
MDA-MB-231 = experiment: Growth inhibition of human MDA-MB-231 cells incubated for 48 hrs by sulforhodamine B assay
Hs-578T = experiment: Growth inhibition of human Hs-578T cells incubated for 48 hrs by sulforhodamine B assay
BT-549 = experiment: Growth inhibition of human BT-549 cells incubated for 48 hrs by sulforhodamine B assay

## O=C(CNc1c(Cl)cccc1Cl)Nc1ccc(-c2nc3ccccc3s2)cc1
HL-60(TB)
  GI50: 2.43 µM
  TGI: 8.38 µM
  CC50: > 100 µM
K562
  GI50: 2.86 µM
  LC50: > 100 µM
  TGI: 11.5 µM
MOLT-4
  GI50: 1.05 µM
  LC50: > 100 µM
  TGI: 7.43 µM
A549
  GI50: 3.65 µM
  TGI: 16.9 µM
  CC50: > 100 µM
HOP-92
  GI50: 1.88 µM
  LC50 (concentration killing 50% of cells): 26.7 µM
  TGI: 6.3 µM
NCI-H23
  GI50: 2 µM
  LC50 (lethal concentration 50%): 17.1 µM
  TGI: 4.59 µM
NCI-H460
  GI50: 3.36 µM
  TGI: 12.4 µM
  CC50: 43 µM
NCI-H522
  GI50: 1.29 µM
  LC50 (50% lethal concentration): 7.58 µM
  TGI: 3.13 µM
COLO 205
  GI50: 2.1 µM
  LC50: 8.79 µM
  TGI: 4.29 µM
HCT-116
  GI50: 2.14 µM
  TGI: 6.14 µM
  CC50: 29 µM
HCT-15
  GI50: 1.58 µM
  TGI: 4.5 µM
  CC50: 53.7 µM
KM12
  GI50: 2.47 µM
  LC50 (concentration killing 50% of cells): 22.3 µM
  TGI: 6.17 µM
SW-620
  GI50: 2.01 µM
  LC50 (concentration killing 50% of cells): 9.85 µM
  TGI: 4.45 µM
SF-295
  GI50: 15.3 µM
  LC50 (concentration causing 50% net cell kill): 60.5 µM
  TGI: 30.4 µM
SNB-19
  GI50: 2.5 µM
  LC50: 80 µM
  TGI: 9.28 µM
SNB-75
  GI50: 2.97 µM
  LC50 (concentration killing 50% of cells): 39.2 µM
  TGI: 15.4 µM
U-251
  GI50: 2.02 µM
  LC50 (lethal concentration 50): 9.45 µM
  TGI: 4.37 µM
LOX IMVI
  GI50: 1.19 µM
  LC50: 6.03 µM
  TGI: 2.68 µM
MDA-MB-435
  GI50: 2.6 µM
  LC50: 99.6 µM
  TGI: 11.3 µM
SK-MEL-2
  GI50: 4.14 µM
  LC50 (lethal concentration, 50% cell kill): > 100 µM
  TGI: 18.8 µM
SK-MEL-28
  GI50: 1.8 µM
  LC50: 7.47 µM
  TGI: 3.67 µM
SK-MEL-5
  GI50: 1.43 µM
  LC50 (50% lethal concentration): 5.88 µM
  TGI: 2.9 µM
UACC-257
  GI50: 3.61 µM
  LC50: 63.1 µM
  TGI: 11.9 µM
IGROV-1
  GI50: 1.92 µM
  TGI: 4.33 µM
  CC50: 9.73 µM
OVCAR-3
  GI50: 1.81 µM
  LC50: 5.79 µM
  TGI: 3.24 µM
OVCAR-8
  GI50: 2.64 µM
  LC50: > 100 µM
  TGI: 8.9 µM
NCI/ADR-RES
  GI50: 3.06 µM
  LC50: > 100 µM
  TGI: 8.06 µM
786-0
  GI50: 1.76 µM
  LC50 (50% lethal concentration): 8.34 µM
  TGI: 3.83 µM
RXF 393
  GI50: 1.63 µM
  LC50 (concentration killing 50% of cells): 7.27 µM
  TGI: 3.44 µM
SN12C
  GI50: 2.49 µM
  LC50: 86.1 µM
  TGI: 8.08 µM
UO-31
  GI50: 1.5 µM
  LC50 (concentration killing 50% of cells): 8.5 µM
  TGI: 3.57 µM
PC-3
  GI50: 1.73 µM
  TGI: 3.47 µM
  CC50: 6.98 µM
MDA-MB-231
  GI50: 2.73 µM
  LC50 (concentration causing 50% cell kill): > 100 µM
  TGI: 7.35 µM
Hs-578T
  GI50: 5.58 µM
  LC50: > 100 µM
  TGI: 69.3 µM
BT-549
  GI50: 1.7 µM
  LC50 (concentration killing 50% of cells): 44.4 µM
  TGI: 5.39 µM

## O=C(CNc1ccc(Cl)cc1)Nc1ccc(-c2nc3ccccc3s2)cc1
HL-60(TB)
  GI50: 2.23 µM
  TGI: 6.05 µM
  CC50: > 100 µM
K562
  GI50: 2.95 µM
  LC50: > 100 µM
  TGI: > 100 µM
MOLT-4
  GI50: 1.25 µM
  LC50: > 100 µM
  TGI: 7.09 µM
A549
  GI50: 3.31 µM
  TGI: 13.7 µM
  CC50: > 100 µM
HOP-92
  GI50: 2.4 µM
  LC50 (concentration killing 50% of cells): 37.8 µM
  TGI: 8.11 µM
NCI-H23
  GI50: 2.04 µM
  LC50 (lethal concentration 50%): 21.6 µM
  TGI: 4.7 µM
NCI-H460
  GI50: 3.73 µM
  TGI: 13.1 µM
  CC50: 39.8 µM
NCI-H522
  GI50: 1.32 µM
  LC50 (50% lethal concentration): 7.46 µM
  TGI: 3.13 µM
COLO 205
  GI50: 2.08 µM
  LC50: 9.08 µM
  TGI: 4.35 µM
HCT-116
  GI50: 1.84 µM
  TGI: 3.91 µM
  CC50: 8.3 µM
HCT-15
  GI50: 1.56 µM
  TGI: 4.74 µM
  CC50: 45.9 µM
KM12
  GI50: 3.24 µM
  LC50 (concentration killing 50% of cells): 33.5 µM
  TGI: 11.1 µM
SW-620
  GI50: 1.89 µM
  LC50 (concentration killing 50% of cells): 8.08 µM
  TGI: 3.9 µM
SF-295
  GI50: 1.28 µM
  LC50 (concentration causing 50% net cell kill): 61.8 µM
  TGI: 28.1 µM
SNB-19
  GI50: 2.81 µM
  LC50: 57.9 µM
  TGI: 10.2 µM
SNB-75
  GI50: 2.65 µM
  LC50 (concentration killing 50% of cells): 37.6 µM
  TGI: 14.1 µM
U-251
  GI50: 1.94 µM
  LC50 (lethal concentration 50): 7.84 µM
  TGI: 3.9 µM
LOX IMVI
  GI50: 1.29 µM
  LC50: 5.74 µM
  TGI: 2.72 µM
MDA-MB-435
  GI50: 2.66 µM
  LC50: 42.7 µM
  TGI: 11.1 µM
SK-MEL-2
  GI50: 6.19 µM
  LC50 (lethal concentration, 50% cell kill): > 100 µM
  TGI: 27.9 µM
SK-MEL-28
  GI50: 2.03 µM
  LC50: 9.72 µM
  TGI: 4.44 µM
SK-MEL-5
  GI50: 1.57 µM
  LC50 (50% lethal concentration): 6.53 µM
  TGI: 3.2 µM
UACC-257
  GI50: 3.12 µM
  LC50: 57.7 µM
  TGI: 11.1 µM
IGROV-1
  GI50: 1.9 µM
  TGI: 4.27 µM
  CC50: 9.59 µM
OVCAR-3
  GI50: 1.85 µM
  LC50: 5.88 µM
  TGI: 3.3 µM
OVCAR-8
  GI50: 2.56 µM
  LC50: > 100 µM
  TGI: 7.06 µM
NCI/ADR-RES
  GI50: 3.03 µM
  LC50: > 100 µM
  TGI: 8.5 µM
786-0
  GI50: 1.85 µM
  LC50 (50% lethal concentration): 9 µM
  TGI: 4.08 µM
RXF 393
  GI50: 1.66 µM
  LC50 (concentration killing 50% of cells): 7.68 µM
  TGI: 3.57 µM
SN12C
  GI50: 2.74 µM
  LC50: 73.4 µM
  TGI: 8.49 µM
UO-31
  GI50: 1.96 µM
  LC50 (concentration killing 50% of cells): 40.3 µM
  TGI: 9.79 µM
PC-3
  GI50: 2.01 µM
  TGI: 5.13 µM
  CC50: 17.9 µM
MDA-MB-231
  GI50: 2.86 µM
  LC50 (concentration causing 50% cell kill): > 100 µM
  TGI: 10.3 µM
Hs-578T
  GI50: 4.41 µM
  LC50: > 100 µM
  TGI: 37.7 µM
BT-549
  GI50: 1.57 µM
  LC50 (concentration killing 50% of cells): 9.1 µM
  TGI: 3.78 µM
